In patent US6852673B2, “Herbicidal pyridine compounds” (BASF Aktiengesellschaft, priority 1998, dated 2005):

Assays:
Assay type in all cases: in vivo
Hordeum vulgare (HORVW) [1] = assay: Pre-emergence herbicidal evaluation, winter barley
Summary of the method: (§1)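 Rating done 2–4 weeks post-treatment in the greenhouse. Compound, in aqueous acetone, was sprayed onto soil surface right after sowing, at rates equivalent to about 0.0125–0.4 kg per hectare, before crop or weed emergence.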

Oryza sativum (ORYSA) [2] = assay: Pre-emergence herbicidal evaluation, rice
From the text: (§2) The pre-emergence herbicidal activity of the compounds of the present invention is exemplified by the following test in which the seeds of a variety of monocotyledonous and dicotyledonous plants are seperately mixed with potting soil and planted on top of approximately one inch of soil in separate pots. After planting, the pots are sprayed with the selected aqueous acetone solution containing test compound in sufficient quantity to provide the equivalent of about 0.0125 to 0.4 kg per hectare of test compound per pot. The treated pots are then placed on greenhouse benches, watered and cared for in accordance with conventional greenhouse procedures. From 2 to 4 weeks after treatment, the tests are terminated and each pot is examined and rated according to the rating system set forth below.

[3] = system: Triticum aestivum (TRZAW); assay: Pre-emergence herbicidal evaluation, winter wheat
Summary of the method: as §1

[4] = system: Abutilon theophrasti (ABUTH); assay: Pre-emergence herbicidal evaluation, velvetleaf
Summary of the method: as §1

[5] = system: Ambrosia artemiisifolia (AMBEL); assay: Pre-emergence herbicidal evaluation, ragweed
From the text: as §2

Galium aparine (GALAP) [6] = assay: Pre-emergence herbicidal evaluation, cleaver
Summary of the method: as §1

[7] = system: Ipomoea hederacea (IPOHE); assay: Pre-emergence herbicidal evaluation, morning glory
Summary of the method: as §1

Lamium purpureum (LAMPU) = assay: Pre-emergence herbicidal evaluation, purple deadnettle
Summary of the method: as §1

[8] = system: Matricaria inodora (MATIN); assay: Pre-emergence herbicidal evaluation, mayweed
Summary of the method: as §1

Stellaria media (STEME) = assay: Pre-emergence herbicidal evaluation, chickweed
Summary of the method: as §1

[9] = system: Alopecurus myosuroides (ALOMY); assay: Pre-emergence herbicidal evaluation, black grass
Summary of the method: as §1

[10] = system: Echinochloa grus galli (ECHCG); assay: Pre-emergence herbicidal evaluation, barnyard grass
From the text: as §2

Setaria viridis (SETVI) [11] = assay: Pre-emergence herbicidal evaluation, green foxtail
Summary of the method: as §1

Glycine max (GLXMA) = assay: Post-emergence herbicidal evaluation, soyabeans; conditions: rated 2 to 4 weeks after treatment
Protocol: (§3) [table] [table] […] These acetone solutions are diluted with water and the resulting formulations applied at dosage levels equivalent of about 0.03 to 0.4 kg per hectare of test compound per pot. After spraying the plants are placed on greenhouse benches and are cared for in the usual manner, commensurate with conventional greenhouse practices. From 2 to 4 weeks after treatment, the seedling plants are examined and rated according to the rating system provided above. A rating 0 indicates growth as untreated control, a rating 9 indicates death.

Hordeum vulgare (HORVW) [12] = assay: Post-emergence herbicidal evaluation, winter barley; conditions: rated 2 to 4 weeks after treatment
Protocol: as §3

Oryza sativum (ORYSA) [13] = assay: Post-emergence herbicidal evaluation, rice; conditions: rated 2 to 4 weeks after treatment
Protocol: as §3

[14] = system: Triticum aestivum (TRZAW); assay: Post-emergence herbicidal evaluation, winter wheat; conditions: rated 2 to 4 weeks after treatment
Protocol: as §3

Zea mays (ZEAMX) = assay: Post-emergence herbicidal evaluation, maize; conditions: rated 2 to 4 weeks after treatment
Protocol: as §3

[15] = system: Abutilon theophrasti (ABUTH); assay: Post-emergence herbicidal evaluation, velvetleaf; conditions: rated 2 to 4 weeks after treatment
Protocol: as §3

[16] = system: Ambrosia artemiisifolia (AMBEL); assay: Post-emergence herbicidal evaluation, ragweed; conditions: rated 2 to 4 weeks after treatment
Protocol: as §3

Galium aparine (GALAP) [17] = assay: Post-emergence herbicidal evaluation, cleaver; conditions: rated 2 to 4 weeks after treatment
Protocol: as §3

[18] = system: Ipomoea hederacea (IPOHE); assay: Post-emergence herbicidal evaluation, morning glory; conditions: rated 2 to 4 weeks after treatment
Protocol: as §3

[19] = system: Matricaria inodora (MATIN); assay: Post-emergence herbicidal evaluation, mayweed; conditions: rated 2 to 4 weeks after treatment
Protocol: as §3

[20] = system: Alopecurus myosuroides (ALOMY); assay: Post-emergence herbicidal evaluation, black grass; conditions: rated 2 to 4 weeks after treatment
Protocol: as §3

Setaria viridis (SETVI) [21] = assay: Post-emergence herbicidal evaluation, green foxtail; conditions: for SETVI rating: rated 2 to 4 weeks after treatment
Protocol: as §3

Cc1cc(OCC(F)(F)C(F)F)nc(Oc2cc(C(F)(F)F)nn2C)c1 [Example 6]
HORVW rating (Hordeum vulgare (HORVW) [1]; dose 0.013 kg/ha): 0 (0 - No effect) | HORVW rating (Hordeum vulgare (HORVW) [1]; dose 0.025 kg/ha): 0 (0 - No effect) | HORVW rating (Hordeum vulgare (HORVW) [1]; dose 0.1 kg/ha): 2 (2 - Slight effect) | HORVW rating (Hordeum vulgare (HORVW) [1]; dose 0.4 kg/ha): 3 (3 - Moderate effect) | ORYSA rating (Oryza sativum (ORYSA) [2]; dose 0.013 kg/ha): 0 (0 - No effect) | ORYSA rating (Oryza sativum (ORYSA) [2]; dose 0.025 kg/ha): 0 (0 - No effect) | ORYSA rating (Oryza sativum (ORYSA) [2]; dose 0.1 kg/ha): 1 (1 - Trace effect) | ORYSA rating (Oryza sativum (ORYSA) [2]; dose 0.4 kg/ha): 2 (2 - Slight effect) | TRZAW rating ([3]; dose 0.013 kg/ha): 0 (0 - No effect) | TRZAW rating ([3]; dose 0.025 kg/ha): 0 (0 - No effect) | TRZAW rating ([3]; dose 0.1 kg/ha): 1 (1 - Trace effect) | TRZAW rating ([3]; dose 0.4 kg/ha): 2 (2 - Slight effect) | ABUTH rating ([4]; dose 0.013 kg/ha): 1 (1 - Trace effect) | ABUTH rating ([4]; dose 0.025 kg/ha): 2 (2 - Slight effect) | ABUTH rating ([4]; dose 0.1 kg/ha): 3 (3 - Moderate effect) | ABUTH rating ([4]; dose 0.4 kg/ha): 9 (9 - Complete kill) | AMBEL rating ([5]; dose 0.013 kg/ha): 1 (1 - Trace effect) | AMBEL rating ([5]; dose 0.025 kg/ha): 1 (1 - Trace effect) | AMBEL rating ([5]; dose 0.1 kg/ha): 9 (9 - Complete kill) | AMBEL rating ([5]; dose 0.4 kg/ha): 9 (9 - Complete kill) | GALAP rating (Galium aparine (GALAP) [6]; dose 0.013 kg/ha): 1 (1 - Trace effect) | GALAP rating (Galium aparine (GALAP) [6]; dose 0.025 kg/ha): 1 (1 - Trace effect) | GALAP rating (Galium aparine (GALAP) [6]; dose 0.1 kg/ha): 5 (5 - Definite injury) | GALAP rating (Galium aparine (GALAP) [6]; dose 0.4 kg/ha): 8 (8 - Approaching complete kill) | IPOHE rating ([7]; dose 0.013 kg/ha): 0 (0 - No effect) | IPOHE rating ([7]; dose 0.025 kg/ha): 1 (1 - Trace effect) | IPOHE rating ([7]; dose 0.1 kg/ha): 2 (2 - Slight effect) | IPOHE rating ([7]; dose 0.4 kg/ha): 8 (8 - Approaching complete kill) | LAMPU rating (Lamium purpureum (LAMPU); dose 0.013 kg/ha): 7 (7 - Good herbicidal effect) | LAMPU rating (Lamium purpureum (LAMPU); dose 0.025 kg/ha): 7 (7 - Good herbicidal effect) | LAMPU rating (Lamium purpureum (LAMPU); dose 0.1 kg/ha): 9 (9 - Complete kill) | LAMPU rating (Lamium purpureum (LAMPU); dose 0.4 kg/ha): 9 (9 - Complete kill) | MATIN rating ([8]; dose 0.1 kg/ha): 9 (9 - Complete kill) | MATIN rating ([8]; dose 0.4 kg/ha): 9 (9 - Complete kill) | STEME rating (Stellaria media (STEME); dose 0.1 kg/ha): 9 (9 - Complete kill) | STEME rating (Stellaria media (STEME); dose 0.4 kg/ha): 9 (9 - Complete kill) | ALOMY rating ([9]; dose 0.013 kg/ha): 1 (1 - Trace effect) | ALOMY rating ([9]; dose 0.025 kg/ha): 3 (3 - Moderate effect) | ALOMY rating ([9]; dose 0.1 kg/ha): 9 (9 - Complete kill) | ALOMY rating ([9]; dose 0.4 kg/ha): 9 (9 - Complete kill) | ECHCG rating ([10]; dose 0.013 kg/ha): 0 (0 - No effect) | ECHCG rating ([10]; dose 0.025 kg/ha): 3 (3 - Moderate effect) | ECHCG rating ([10]; dose 0.1 kg/ha): 8 (8 - Approaching complete kill) | ECHCG rating ([10]; dose 0.4 kg/ha): 9 (9 - Complete kill) | SETVI rating (Setaria viridis (SETVI) [11]; dose 0.013 kg/ha): 4 (4 - Injury) | SETVI rating (Setaria viridis (SETVI) [11]; dose 0.025 kg/ha): 6 (6 - Herbicidal effect) | SETVI rating (Setaria viridis (SETVI) [11]; dose 0.1 kg/ha): 8 (8 - Approaching complete kill) | SETVI rating (Setaria viridis (SETVI) [11]; dose 0.4 kg/ha): 9 (9 - Complete kill) | GLXMA rating (Glycine max (GLXMA); dose 0.1 kg/ha): 7 (7 - Good herbicidal effect) | GLXMA rating (Glycine max (GLXMA); dose 0.25 kg/ha): 7 (7 - Good herbicidal effect) | GLXMA rating (Glycine max (GLXMA); dose 0.4 kg/ha): 7 (7 - Good herbicidal effect) | HORVW rating (Hordeum vulgare (HORVW) [12]; dose 0.1 kg/ha): 2 (2 - Slight effect) | HORVW rating (Hordeum vulgare (HORVW) [12]; dose 0.25 kg/ha): 1 (1 - Trace effect) | HORVW rating (Hordeum vulgare (HORVW) [12]; dose 0.4 kg/ha): 3 (3 - Moderate effect) | ORYSA rating (Oryza sativum (ORYSA) [13]; dose 0.1 kg/ha): 1 (1 - Trace effect) | ORYSA rating (Oryza sativum (ORYSA) [13]; dose 0.25 kg/ha): 1 (1 - Trace effect) | ORYSA rating (Oryza sativum (ORYSA) [13]; dose 0.4 kg/ha): 1 (1 - Trace effect) | TRZAW rating ([14]; dose 0.1 kg/ha): 2 (2 - Slight effect) | TRZAW rating ([14]; dose 0.25 kg/ha): 1 (1 - Trace effect) | TRZAW rating ([14]; dose 0.4 kg/ha): 3 (3 - Moderate effect) | ZEAMX rating (Zea mays (ZEAMX); dose 0.1 kg/ha): 2 (2 - Slight effect) | ZEAMX rating (Zea mays (ZEAMX); dose 0.25 kg/ha): 1 (1 - Trace effect) | ZEAMX rating (Zea mays (ZEAMX); dose 0.4 kg/ha): 5 (5 - Definite injury) | ABUTH rating ([15]; dose 0.1 kg/ha): 4 (4 - Injury) | ABUTH rating ([15]; dose 0.25 kg/ha): 2 (2 - Slight effect) | ABUTH rating ([15]; dose 0.4 kg/ha): 6 (6 - Herbicidal effect) | AMBEL rating ([16]; dose 0.1 kg/ha): 4 (4 - Injury) | AMBEL rating ([16]; dose 0.25 kg/ha): 3 (3 - Moderate effect) | AMBEL rating ([16]; dose 0.4 kg/ha): 6 (6 - Herbicidal effect) | GALAP rating (Galium aparine (GALAP) [17]; dose 0.1 kg/ha): 6 (6 - Herbicidal effect) | GALAP rating (Galium aparine (GALAP) [17]; dose 0.25 kg/ha): 3 (3 - Moderate effect) | GALAP rating (Galium aparine (GALAP) [17]; dose 0.4 kg/ha): 7 (7 - Good herbicidal effect) | IPOHE rating ([18]; dose 0.1 kg/ha): 8 (8 - Approaching complete kill) | IPOHE rating ([18]; dose 0.25 kg/ha): 7 (7 - Good herbicidal effect) | IPOHE rating ([18]; dose 0.4 kg/ha): 9 (9 - Complete kill) | MATIN rating ([19]; dose 0.1 kg/ha): 6 (6 - Herbicidal effect) | MATIN rating ([19]; dose 0.25 kg/ha): 4 (4 - Injury) | MATIN rating ([19]; dose 0.4 kg/ha): 6 (6 - Herbicidal effect) | ALOMY rating ([20]; dose 0.1 kg/ha): 6 (6 - Herbicidal effect) | ALOMY rating ([20]; dose 0.25 kg/ha): 2 (2 - Slight effect) | ALOMY rating ([20]; dose 0.4 kg/ha): 8 (8 - Approaching complete kill) | SETVI rating (Setaria viridis (SETVI) [21]; dose 0.1 kg/ha): 3 (3 - Moderate effect) | SETVI rating (Setaria viridis (SETVI) [21]; dose 0.25 kg/ha): 2 (2 - Slight effect) | SETVI rating (Setaria viridis (SETVI) [21]; dose 0.4 kg/ha): 6 (6 - Herbicidal effect) | grass control such as Setaria virides (Setaria viridis (SETVI) [21]; in barley at crop selective doses): effective
